In US20240092784A1, “CONDENSED HETEROCYCLIC COMPOUND” (NISSAN CHEMICAL CORPORATION, priority 2020, published 2024) one finds IC50 data, which are given here for ten compounds.

SMILES strings stand for the structures. Counter-ions that a name gives are not always drawn.

Sequence of human SPR (P35270 whole entry): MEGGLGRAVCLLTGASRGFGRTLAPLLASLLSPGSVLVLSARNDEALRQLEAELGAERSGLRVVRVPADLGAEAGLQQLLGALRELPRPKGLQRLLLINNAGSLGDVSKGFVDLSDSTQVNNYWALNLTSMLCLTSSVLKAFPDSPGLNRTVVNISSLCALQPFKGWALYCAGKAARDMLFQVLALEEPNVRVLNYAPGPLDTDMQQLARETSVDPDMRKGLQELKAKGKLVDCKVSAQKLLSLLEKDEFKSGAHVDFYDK

One experiment has as its target human SPR (Homo sapiens (Human), UniProt P35270). The experiment in a line: Evaluation Example 2: Measurement of human SPR inhibitory activity (seven concentrations, sepiapterin absorbance at 420 nm). It is filed as biochemical. The conditions noted are these: Evaluation Example 2, seven concentrations 0.14 nM to 100 nM, 240 minutes at room temperature, read-out: IC50. The gist of the method:
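His-tagged full-length human SPR (1-261) was expressed in E. coli and the tag removed. Enzyme at 150 ng/mL in 100 mM Tris-HCl pH 7.5/0.01% BSA was mixed with compound (0.14–100 nM, seven points), 120 μM sepiapterin and 160 μM NADPH, both as added-solution concentrations. After 240 min at room temperature, remaining sepiapterin was read at 420 nm to give percent inhibition.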
Regarding `CC(C)(C)Cn1c(=O)c(C(=O)NC2CC2)c(O)n2nc3c(c12)CCC(=O)N3` [Synthesis Example 403, N-Cyclopropyl-4-hydroxy-1-neopentyl-2,8-dioxo-1,2,7,8,9,10-hexahydropyrido[2′,3′:3,4]pyrazolo[1,5-a]pyrimidine-3-carboxamide], the IC50 turned out to be 0.61 nM.

Regarding `CC(C)Cn1c(=O)c(C(=O)NC2CC2)c(O)n2ncc(/C=C/C(=O)N3CCN(C4CCC4)CC3)c12` [compound 472, (E)-3-(3-(4-Cyclobutylpiperazin-1-yl)-3-oxoprop-1-en-1-yl)-N-cyclopropyl-7-hydroxy-4-isobutyl-5-oxo-4,5-dihydropyrazolo[1,5-a]pyrimidine-6-carboxamide], the IC50 came out at 1.12 nM.

For `COC(C)(C)Cn1c(=O)c(C(=O)NC2CC2)c(O)n2nc(Nc3cnccn3)cc12` [Synthesis Example 321, N-Cyclopropyl-7-hydroxy-4-(2-methoxy-2-methylpropyl)-5-oxo-2-(pyrazin-2-ylamino)-4,5-dihydropyrazolo[1,5-a]pyrimidine-6-carboxamide], the IC50 turned out to be 0.72 nM.

Turning to `CC(C)Cn1c(=O)c(C(=O)NC2CC2)c(O)n2nc(N)c(/C=C/C(=O)N3CCOC[C@@H]3C)c12` [Synthesis Example 417, (S,E)-2-Amino-N-cyclopropyl-7-hydroxy-4-isobutyl-3-(3-(3-methylmorpholino)-3-oxoprop-1-en-1-yl)-5-oxo-4,5-dihydropyrazolo[1,5-a]pyrimidine-6-carboxamide hydrochloride], the IC50 is 0.59 nM.

For the compound `CC(=O)N1CCC2(CCCN2C(=O)/C=C/c2c(C)nn3c(O)c(C(=O)NC4CC4)c(=O)n(CC(C)C)c23)CC1` [Synthesis Example 665, (E)-3-(3-(8-Acetyl-1,8-diazaspiro[4.5]decan-1-yl)-3-oxoprop-1-en-1-yl)-N-cyclopropyl-7-hydroxy-4-isobutyl-2-methyl-5-oxo-4,5-dihydropyrazolo[1,5-a]pyrimidine-6-carboxamide], the IC50 was 0.92 nM.

As to `COC(C)(C)Cn1c(=O)c(C(=O)NC2CC2)c(O)n2ncc(/C=C/C(=O)N3CCOCC3)c12` [Synthesis Example 365, (E)-N-Cyclopropyl-7-hydroxy-4-(2-methoxy-2-methylpropyl)-3-(3-morpholino-3-oxoprop-1-en-1-yl)-5-oxo-4,5-dihydropyrazolo[1,5-a]pyrimidine-6-carboxamide], the IC50 is 0.65 nM.

`CC(C)(C)Cn1c(=O)c(C(=O)NC2CC2)c(O)n2nc(-c3cc(C#N)n[nH]3)cc12` [Synthesis Example 296, 2-(3-Cyano-1H-pyrazol-5-yl)-N-cyclopropyl-7-hydroxy-4-neopentyl-5-oxo-4,5-dihydropyrazolo[1,5-a]pyrimidine-6-carboxamide]: the IC50 was found to be 2.93 nM.

In the case of `CC1(Cn2c(=O)c(C(=O)NC3CC3)c(O)n3ncc(/C=C/C(=O)N4CCOCC4)c23)CC1` [Synthesis Example 366, (E)-N-Cyclopropyl-7-hydroxy-4-((1-methylcyclopropyl)methyl)-3-(3-morpholino-3-oxoprop-1-en-1-yl)-5-oxo-4,5-dihydropyrazolo[1,5-a]pyrimidine-6-carboxamide], the IC50 was found to be 0.75 nM.

Staying with this experiment, now noted: sepiapterin absorbance, Table 41, read-out: concentration at 50% inhibition of human SPR (IC50).
Turning to `CC(C)Cn1c(=O)c(C(=O)NC2CC2)c(O)n2ncc(/C=C/C(=O)N3CCCC34CC4)c12` [Synthesis Example 721, (E)-N-Cyclopropyl-7-hydroxy-4-isobutyl-5-oxo-3-(3-oxo-3-(4-azaspiro[2.4]heptan-4-yl)prop-1-en-1-yl)-4,5-dihydropyrazolo[1,5-a]pyrimidine-6-carboxamide], the IC50 came to 1.05 nM.

`Cc1nn2c(O)c(C(=O)NC3CC3)c(=O)n(CC(C)C)c2c1/C=C/C(=O)N(C)CC(C)(C)O` [Synthesis Example 686, (E)-N-Cyclopropyl-7-hydroxy-3-(3-((2-hydroxy-2-methylpropyl)(methyl)amino)-3-oxoprop-1-en-1-yl)-4-isobutyl-2-methyl-5-oxo-4,5-dihydropyrazolo[1,5-a]pyrimidine-6-carboxamide]: the IC50 was determined as 1 nM.
